How the values were obtained:
[1] = system: T. cruzi Tulahuen trypomastigotes; test: T. cruzi trypomastigote assay (Cell Titer-Glo viability, ATP luminescence); format: cell-based, Trypanosoma cruzi; conditions: for Trypomastigotes pIC50 48 hours: 48 hours incubation; for Trypomastigotes pIC50 48 hours / Trypomastigotes pIC50 72 hours: pIC50 = -log10 IC50 in molar units; for Trypomastigotes pIC50 72 hours: 72 hours incubation; for 72 pIC50 (trypomastigotes, raw data of Fig 1D): 72 hours, plotted values, censored values given without sign; for 48 pIC50 / 72 pIC50: trypomastigote assay; for 48 pIC50: 48 h; for 72 pIC50: 72 h
How it was run: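 Tulahuen trypomastigotes from infected LLC-MK2 culture supernatants (days 5–8) plated at 5 × 10^4 per well in DMEM/2% FBS with compound at 5 μM single-shot final or in dose response. Viability by CellTiter-Glo ATP luminescence after 10 min at room temperature, normalised to no-cell (100%) and DMSO (0%) controls.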

[2] = system: H9c2 (rat cardiomyocytes); test: RoK assay, number of host cells nuclei (drug-related cytotoxicity, H9c2 output, Cmin_Tox); conditions: H9c2 host cells
How it was run: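 H9c2 rat cardiomyocytes infected with T. cruzi trypomastigotes, plated in 384-well format, compound-treated and imaged over a time course. Host nuclei counted after formaldehyde fixation and DRAQ5 staining by high-content imaging. Cmin_Tox is the lowest concentration reducing host cells below 50% of initial density.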

TcCYP51 = conditions: formerly reported; cited from earlier work

SMILES	Trypomastigotes pIC50 48 hours [1]	Trypomastigotes pIC50 72 hours [1]	72 pIC50 (trypomastigotes, raw data of Fig 1D) [1]	48 pIC50 ([1]; figure 1A)	72 pIC50 ([1]; figure 1A)	72 pIC50 ([1]; figure 1B)	Cmin_Tox [2] [µM]	CYP51 pIC50 (TcCYP51)
O=C(NC1C(=O)N(c2ccccc2)C1c1cccnc1)c1ccc(Cl)s1 (centres unmarked) [TCMDC-143324]	< 4.3	< 4.3	< 4.3	< 4.3	< 4.3	< 4.3	>50	6.7
COc1ccc2ncc(=O)n(CCN3CCOC(CNCc4ccc(C(F)(F)F)cc4F)C3)c2n1 (centres unmarked) [TCMDC-143384]	< 4.3	< 4.3	< 4.3	< 4.3	< 4.3	< 4.3	>50	5
CN(Cc1ccc(C(N)=O)cc1)C(c1ccc(F)cc1)c1cccnc1 (centres unmarked) [TCMDC-143504]	< 4.3	< 4.3	< 4.3	< 4.3	< 4.3	< 4.3	>50	7
Clc1ccc(Sc2cnccc2N2CCOCC2)cc1 [TCMDC-143602]	4.5	< 4.3					>50	7.5
Cn1cc(CN2CCN(c3ccc4c(c3)CCN(C(=O)[C@H]3C[C@@H]3c3ccccc3)CC4)CC2)cn1 [TCMDC-143537]	5	4.9					>50	4.8
CCC(=O)Nc1ccc(-c2nc3ccc(Cl)cc3[nH]2)cc1 [TCMDC-143135]	5.3	5.4					>50	< 4
CC(CNS(=O)(=O)c1ccc(OC(F)F)cc1)c1ccc(NC(=O)c2ccncc2)cc1 (centres unmarked) [TCMDC-143535]	4.6	4.4					>50	7.3
Cn1cncc1CN1CCC2(CC1)COC(Cc1ccccc1)C2 (centres unmarked) [TCMDC-143502]	< 4.3	< 4.3	< 4.3	< 4.3	< 4.3	< 4.3	>50	6
CN(C)Cc1ccc(-c2ccc(S(=O)(=O)NCC3CCCO3)c(F)c2)cc1.O=C(O)C(F)(F)F (centres unmarked) [TCMDC-143085]	< 4.3	< 4.3	< 4.3	< 4.2	< 4.3	< 4.3	>50	4.4
CC(=O)Nc1ccc(-c2noc(CC3CCCN(Cc4cccc(F)c4C)C3)n2)cc1 (centres unmarked) [TCMDC-143362]	5.2	5.3					50.0	< 4
Cc1nn(C)c(Cl)c1CN(Cc1cccnc1)Cc1ccsc1 [TCMDC-143477]	< 4.3	< 4.3	< 4.3	< 4.3	< 4.3	< 4.3	>50	7.2
CN(C(=O)Nc1ccc2c(c1)CCN(C1CCC1)CC2)c1ccc(C#N)cc1.Cl [TCMDC-143526]	< 4.3	< 4.3	< 4.3	< 4.3	< 4.3	< 4.3	>50	< 4
O=C(C1CCCCC1)N1CCN(c2nnc(-c3ccccc3)c3ccccc23)CC1 [TCMDC-143511]	< 4.3	< 4.3	< 4.3	< 4.3	< 4.3	< 4.3	>50	< 4
COc1cc(-c2nc(N3CCOCC3)sc2-c2ccnc(NC3CCOCC3)n2)ccc1Cl.O=C(O)C(F)(F)F [TCMDC-143414]	< 4.3	< 4.3	< 4.3	< 4.3	< 4.3	< 4.3	>50	< 4
O=C(NCCc1ccccn1)C(c1cn[nH]c1)N1CCN(c2ccc(Cl)c(Cl)c2)CC1 (centres unmarked) [TCMDC-143411]	< 4.3	< 4.3	< 4.3	< 4.3	< 4.3	< 4.3	>50	6.9
Cc1c(C(C)NC(=O)Nc2cccc(Cl)c2)sc2ncnn12 (centres unmarked) [TCMDC-143405]	< 4.3	< 4.3	< 4.3	< 4.3	< 4.3	< 4.3	>50	6.9
CCCCNc1nccc(-c2c(-c3ccc(F)cc3)nn3c(N4CCOCC4)cccc23)n1 [TCMDC-143617]	5.1	< 4.3					>50	< 4
Fc1ccc(OC2CC(NCc3cccc4cn[nH]c34)C2)cc1C(F)(F)F (centres unmarked) [TCMDC-143455]	5	5	5	5	5	5	16.7	6.9
COc1ccc(CN(C)Cc2ccncc2)cc1-c1ccc(S(=O)(=O)NC2CCC2)s1.O=C(O)C(F)(F)F.O=C(O)C(F)(F)F [TCMDC-143084]	5	4.9					>50	7.1
Cc1nccn1C1CCCN(C(=O)c2cc3c(F)cccc3s2)C1 (centres unmarked) [TCMDC-143498]	4.7	4.7	4.7	4.7	4.7	4.7	>50	4.3
Cc1c(C#N)c([N+](=O)[O-])nn1Cc1cccc(Cl)c1Cl [TCMDC-143152]	6.1	6.1	6.1	6.1	6.1	6.1	>50	< 4
CC(C)c1cc(C(=O)N2CCCC(c3cc4ncccc4[nH]3)C2)on1 (centres unmarked) [TCMDC-143439]	5.3	5.3	5.3	5.3	5.3	5.3	>50	4.3
CCn1nccc1CN(C)C(=O)C=Cc1ccc(Cl)cc1 [TCMDC-143325]	< 4.3	< 4.3	< 4.3	< 4.3	< 4.3	< 4.3	>50	6.5
O=C(c1cccc(Cl)c1Cl)N1CCn2c1nc(-c1ccncc1)cc2=O [TCMDC-143409]	< 4.3	< 4.3	< 4.3	< 4.3	< 4.3	< 4.3	>50	7.2
Cc1nnnn1-c1cccc(C(=O)N2CCC[C@@]3(C)c4ncncc4CCC23)c1 (some centres unmarked) [TCMDC-143148]	< 4.3	< 4.3	< 4.3	< 4.3	< 4.3	< 4.3	>50	4.6
O=C(CSc1ccc(-c2ccccn2)nn1)Nc1ccc(Cl)cc1 [TCMDC-143552]	5.4	5.5					>50	< 4
CCCc1nc2nc(N)nc(N)c2cc1CC [TCMDC-143606]	5.9	5.8					>50	< 4
O=C(CN(c1cccc(C(F)(F)F)c1)S(=O)(=O)c1ccc(Cl)cc1)NCc1ccc(F)c(F)c1 [TCMDC-143548]	5	4.9					>50	6.8
CNc1cc(C)nc(C2CN(C(=O)c3n[nH]c4ccccc34)CCO2)c1 (centres unmarked) [TCMDC-143494]	5.9	5.5					>50	< 4

Reference: paper PMC8318231, “Rate-of-Kill (RoK) assays to triage large compound sets for Chagas disease drug discovery: Application to GSK Chagas Box” (PLoS Neglected Tropical Diseases, 2021)
